According to ChEMBL document CHEMBL4765398, “Benzothiophene-2-carboxamide derivatives as SENPs inhibitors with selectivity within SENPs family” (Eur J Med Chem, 2020):
pIC50: −log10 of the molar value.

Legend:
[1] = molecular target: T1, Sentrin-specific protease 1 (Homo sapiens, UniProt Q9P0U3); experiment: Inhibition of recombinant human SNEP1 (419 to 644 residues) expressed in Escherichia coli (DE3) cells using RanGAP-SUMO2 substrate preincubated for 10 mins followed by substrate addition and measured after 25 min by Coomassie blue staining based SDS-PAGE analysis
T1 sequence (Q9P0U3 whole entry): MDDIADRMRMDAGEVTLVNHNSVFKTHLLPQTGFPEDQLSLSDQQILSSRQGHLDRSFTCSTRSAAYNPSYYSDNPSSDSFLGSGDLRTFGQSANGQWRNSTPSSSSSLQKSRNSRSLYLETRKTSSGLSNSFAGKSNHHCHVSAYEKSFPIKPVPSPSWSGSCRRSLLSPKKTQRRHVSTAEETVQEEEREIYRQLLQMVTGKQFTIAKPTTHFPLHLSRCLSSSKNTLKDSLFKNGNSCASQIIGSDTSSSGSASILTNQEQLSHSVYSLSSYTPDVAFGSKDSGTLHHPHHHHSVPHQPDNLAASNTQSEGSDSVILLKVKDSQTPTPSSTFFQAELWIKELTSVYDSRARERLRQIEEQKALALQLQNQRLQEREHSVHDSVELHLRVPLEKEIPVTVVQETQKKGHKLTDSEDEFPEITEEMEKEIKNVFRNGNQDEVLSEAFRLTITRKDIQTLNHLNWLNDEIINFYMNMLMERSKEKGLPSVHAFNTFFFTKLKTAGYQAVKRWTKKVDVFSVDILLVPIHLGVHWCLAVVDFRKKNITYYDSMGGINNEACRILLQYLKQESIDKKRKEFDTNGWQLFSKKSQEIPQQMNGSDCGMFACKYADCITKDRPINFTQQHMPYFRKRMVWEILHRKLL

[2] = molecular target: T2, Sentrin-specific protease 5 (Homo sapiens, UniProt Q96HI0); experiment: Inhibition of recombinant human SNEP5 (567 to 755 residues) expressed in Escherichia coli (DE3) cells using RanGAP-SUMO2 substrate preincubated for 10 mins followed by substrate addition and measured after 25 min by Coomassie blue staining based SDS-PAGE analysis
T2 sequence (Q96HI0 whole entry): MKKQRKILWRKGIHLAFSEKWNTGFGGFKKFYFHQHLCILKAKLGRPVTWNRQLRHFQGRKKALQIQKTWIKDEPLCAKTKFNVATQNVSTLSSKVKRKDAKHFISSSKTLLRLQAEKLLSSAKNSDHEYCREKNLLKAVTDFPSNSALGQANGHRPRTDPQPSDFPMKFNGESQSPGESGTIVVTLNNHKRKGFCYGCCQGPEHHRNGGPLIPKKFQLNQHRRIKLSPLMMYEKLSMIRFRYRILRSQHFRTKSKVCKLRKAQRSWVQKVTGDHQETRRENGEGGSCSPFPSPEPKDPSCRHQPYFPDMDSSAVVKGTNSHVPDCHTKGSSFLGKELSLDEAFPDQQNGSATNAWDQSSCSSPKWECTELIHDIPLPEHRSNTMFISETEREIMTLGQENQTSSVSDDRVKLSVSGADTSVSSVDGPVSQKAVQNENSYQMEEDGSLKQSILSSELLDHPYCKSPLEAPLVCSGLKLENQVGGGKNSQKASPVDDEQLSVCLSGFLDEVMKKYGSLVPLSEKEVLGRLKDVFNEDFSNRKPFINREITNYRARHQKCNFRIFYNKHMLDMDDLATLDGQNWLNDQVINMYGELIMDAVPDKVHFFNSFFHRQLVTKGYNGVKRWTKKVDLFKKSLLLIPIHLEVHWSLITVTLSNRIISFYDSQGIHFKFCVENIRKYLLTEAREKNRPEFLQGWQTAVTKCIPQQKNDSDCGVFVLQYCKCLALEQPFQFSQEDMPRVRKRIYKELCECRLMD

[3] = molecular target: T3, Sentrin-specific protease 2 (Homo sapiens, UniProt Q9HC62); experiment: Inhibition of recombinant human SNEP2 (365 to 589 residues) expressed in Escherichia coli (DE3) cells using RanGAP-SUMO2 substrate preincubated for 10 mins followed by substrate addition and measured after 25 min by Coomassie blue staining based SDS-PAGE analysis
T3 sequence (Q9HC62 whole entry): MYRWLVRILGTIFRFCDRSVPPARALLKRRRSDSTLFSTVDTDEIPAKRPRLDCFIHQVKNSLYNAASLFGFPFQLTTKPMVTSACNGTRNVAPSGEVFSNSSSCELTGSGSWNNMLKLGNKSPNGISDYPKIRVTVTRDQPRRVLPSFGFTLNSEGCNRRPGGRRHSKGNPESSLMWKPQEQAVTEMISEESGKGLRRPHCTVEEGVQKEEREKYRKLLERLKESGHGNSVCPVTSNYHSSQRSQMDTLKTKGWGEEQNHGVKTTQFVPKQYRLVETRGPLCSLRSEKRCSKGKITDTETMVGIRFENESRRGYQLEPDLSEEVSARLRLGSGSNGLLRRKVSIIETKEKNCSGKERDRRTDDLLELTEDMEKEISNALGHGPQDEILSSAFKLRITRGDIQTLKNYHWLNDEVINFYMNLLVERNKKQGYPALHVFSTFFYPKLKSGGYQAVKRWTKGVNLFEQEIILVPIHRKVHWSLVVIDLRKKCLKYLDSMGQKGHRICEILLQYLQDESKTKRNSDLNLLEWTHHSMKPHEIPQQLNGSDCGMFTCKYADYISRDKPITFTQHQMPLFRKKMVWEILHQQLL

[4] = Inhibition of recombinant human SNEP1 H529A mutant (419 to 644 residues) expressed in Escherichia coli (DE3) cells using RanGAP-SUMO2 substrate preincubated for 10 mins followed by substrate addition and measured after 25 min by Coomassie blue staining based SDS-PAGE analysis
[5] = Inhibition of recombinant human SNEP1 W465A mutant (419 to 644 residues) expressed in Escherichia coli (DE3) cells using RanGAP-SUMO2 substrate preincubated for 10 mins followed by substrate addition and measured after 25 min by Coomassie blue staining based SDS-PAGE analysis
[6] = Inhibition of recombinant human SNEP1 Q597A mutant (419 to 644 residues) expressed in Escherichia coli (DE3) cells using RanGAP-SUMO2 substrate preincubated for 10 mins followed by substrate addition and measured after 25 min by Coomassie blue staining based SDS-PAGE analysis
[7] = Inhibition of recombinant human SNEP1 K455A mutant (419 to 644 residues) expressed in Escherichia coli (DE3) cells using RanGAP-SUMO2 substrate preincubated for 10 mins followed by substrate addition and measured after 25 min by Coomassie blue staining based SDS-PAGE analysis
[8] = Inhibition of recombinant human SNEP1 F496A mutant (419 to 644 residues) expressed in Escherichia coli (DE3) cells using RanGAP-SUMO2 substrate preincubated for 10 mins followed by substrate addition and measured after 25 min by Coomassie blue staining based SDS-PAGE analysis

| pIC50 [1] | pIC50 [2] | pIC50 [3] | pIC50 [4] | pIC50 [5] | pIC50 [6] | pIC50 [7] | pIC50 [8] | SMILES |
| --- | --- | --- | --- | --- | --- | --- | --- | --- |
| 4.60 | 4.54 | 4.28 |  |  |  |  |  | CC(=O)Nc1cccc(CNC(=O)c2sc3ccccc3c2OCc2ccccc2)c1 |
|  | < 4.00 |  |  |  |  |  |  | Nc1ccc(C(=O)Nc2cccc(CNC(=O)c3sc4ccccc4c3OCc3ccccc3)c2)cc1 |
|  |  |  | 4.67 | 4.39 | 4.65 | 5.47 | 5.23 | CCOC(=O)CNc1ccc2sc(C(=O)NCc3cccc(NC(=O)c4cccs4)c3)c(OCc3ccccc3)c2c1 |
